Starred links: 1 amine or outer side, 2 acyl side, 3 side chain; linkers in the order of their positions; H or OH if unused. Positions of bridges follow the written chain, without caps; N, C: chain ends. Non-standard residues stand in square brackets, D forms with d. Residues, ends and D or L forms follow the SMILES beside them. *: point of attachment. X63 = O=C1CC[C@@H](C(=O)Nc2cccc(C[C@H](N[*:1])C(=O)[*:2])c2)N1; X62 = O=C(Nc1cccc(C[C@H](N[*:1])C(=O)[*:2])c1)c1c[nH]cn1; DOTA = O=C(O)CN1CCN(CC(=O)O)CCN(CC(=O)*)CCN(CC(=O)O)CC1; X66 = NC(=O)CCC(=O)Nc1cccc(C[C@H](N[*:1])C(=O)[*:2])c1; X68 = CC1(C(=O)Nc2cccc(C[C@H](N[*:1])C(=O)[*:2])c2)CC1; X54 = O=C(Nc1cccc(C[C@H](N[*:1])C(=O)[*:2])c1)c1cnco1; X43 = CCC(=O)Nc1cccc(C[C@H](N[*:1])C(=O)[*:2])c1; mXylylene = c1cc(C[*:1])cc(C[*:2])c1; X2 = O=C(CN1CCC(N[*:1])CC1)[*:2]; X58 = CS(=O)(=O)c1ccc(CN*)cc1; X42 = c1ccc2cc(CN*)ccc2c1; X64 = c1cc2cc(CN*)ccc2cn1; Dap = NC[C@H](N)C(=O)O; AEEA = NCCOCCOCC(=O)O; X45 = COCc1cc(CN*)on1
The molecules below were run against T1, CAIX-expressing human HT-29 colorectal cancer cells (Homo sapiens, UniProt Q16790) (assay: FACS binding assay (IC50 determination, competition with tracer 3BP-2776 or 3BP-4149)). Details: FACS binding assay, HT-29 cells, competition with tracer 3BP-2776 (10 nM, biotin-labeled), 4° C., 1 hour; read-out: pIC50 category (activity) (converted).
T1 construct: CAIX-expressing human HT-29 colorectal cancer cells; host or cells: HT-29 human colorectal cancer cells
Procedure, shortened: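 HT-29 cells in FACS buffer (PBS, 1% FCS) at 500.000 cells/ml were exposed to compounds competing with a labelled tracer, with biotinylated compounds detected by 1 μg/mL APC-streptavidin for 30 min on ice. APC/Cy5 median fluorescence was read by flow cytometry and IC50 derived by 4PL fit.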

`CC(C)C[C@@H]1NC(=O)[C@H](Cc2c[nH]c3ccccc23)NC(=O)[C@H](CCC(=O)NCc2ccc3ccccc3c2)NC(=O)[C@H]2CCCN2C(=O)[C@H](CCC(=O)O)NC(=O)[C@@H](NC(=O)[C@H](Cc2ccc(O)cc2)NC(=O)[C@@H](NC(=O)CN2CCC(NC(=O)CN3CCN(CC(=O)O)CCN(CC(=O)O)CCN(CC(=O)O)CC3)CC2)C(C)C)CSCc2cccc(c2)CSC[C@@H](C(N)=O)NC(=O)[C@H](CO)NC(=O)[C@H](Cc2c[nH]c3ccccc23)NC(=O)[C@H]([C@@H](C)O)NC1=O` [3BP-4215, DOTA-APAc-Val-Tyr-[Cys(3MeBn)-Glu-pro-Glu(NHMe2Nph)-Trp-Leu-Thr-Trp-Ser-Cys]-NH2] ({DOTA}-[X2]VYCE[dP]E(X42)WLTWSC-NH2; linker 4-13 via mXylylene) and `CCC(=O)Nc1cccc(C[C@@H]2NC(=O)[C@H](CC(=O)O)NC(=O)[C@H]3CCCN3C(=O)[C@H](CCC(=O)O)NC(=O)[C@@H](NC(=O)[C@H](Cc3ccc(O)cc3)NC(=O)[C@@H](NC(=O)CN3CCC(NC(=O)CN4CCN(CC(=O)O)CCN(CC(=O)O)CCN(CC(=O)O)CC4)CC3)C(C)C)CSCc3cccc(c3)CSC[C@@H](C(N)=O)NC(=O)[C@H](CO)NC(=O)[C@H](Cc3c[nH]c4ccccc34)NC(=O)[C@H]([C@@H](C)O)NC(=O)[C@H](CC(C)C)NC2=O)c1` [3BP-4235] ({DOTA}-[X2]VYCE[dP]D[X43]LTWSC-NH2; linker 4-13 via mXylylene) cannot be ordered by IC50: less than 0.01 µM for the first, less than 0.01 µM for the second.

Compared with `CC(C)C[C@@H]1NC(=O)[C@H](Cc2cccc(NC(=O)C3(C)CC3)c2)NC(=O)[C@H](CC(=O)O)NC(=O)[C@H]2CCCN2C(=O)[C@H](CCC(=O)O)NC(=O)[C@@H](NC(=O)[C@H](Cc2ccc(O)cc2)NC(=O)[C@@H](NC(=O)CN2CCC(NC(=O)CN3CCN(CC(=O)O)CCN(CC(=O)O)CCN(CC(=O)O)CC3)CC2)C(C)C)CSCc2cccc(c2)CSC[C@@H](C(N)=O)NC(=O)[C@H](CO)NC(=O)[C@H](Cc2c[nH]c3ccccc23)NC(=O)[C@H]([C@@H](C)O)NC1=O` [3BP-4234] ({DOTA}-[X2]VYCE[dP]D[X68]LTWSC-NH2; linker 4-13 via mXylylene), `CC(C)C[C@@H]1NC(=O)[C@H](Cc2cccc(NC(=O)[C@@H]3CCC(=O)N3)c2)NC(=O)[C@H](CC(=O)O)NC(=O)[C@H]2CCCN2C(=O)[C@H](CCC(=O)O)NC(=O)[C@@H](NC(=O)[C@H](Cc2ccc(O)cc2)NC(=O)[C@@H](NC(=O)CN2CCC(NC(=O)CN3CCN(CC(=O)O)CCN(CC(=O)O)CCN(CC(=O)O)CC3)CC2)C(C)C)CSCc2cccc(c2)CSC[C@@H](C(N)=O)NC(=O)[C@H](CO)NC(=O)[C@H](Cc2c[nH]c3ccccc23)NC(=O)[C@H]([C@@H](C)O)NC1=O` [3BP-4241] ({DOTA}-[X2]VYCE[dP]D[X63]LTWSC-NH2; linker 4-13 via mXylylene) is higher in IC50: less than 0.01 µM for the first, 0.01 to 0.0794 µM for the second.

`CC(C)C[C@@H]1NC(=O)[C@H](Cc2cccc(NC(=O)CCC(N)=O)c2)NC(=O)[C@H](CC(=O)O)NC(=O)[C@H]2CCCN2C(=O)[C@H](CCC(=O)O)NC(=O)[C@@H](NC(=O)[C@H](Cc2ccc(O)cc2)NC(=O)[C@@H](NC(=O)CN2CCC(NC(=O)CN3CCN(CC(=O)O)CCN(CC(=O)O)CCN(CC(=O)O)CC3)CC2)C(C)C)CSCc2cccc(c2)CSC[C@@H](C(N)=O)NC(=O)[C@H](CO)NC(=O)[C@H](Cc2c[nH]c3ccccc23)NC(=O)[C@H]([C@@H](C)O)NC1=O` [3BP-4238] ({DOTA}-[X2]VYCE[dP]D[X66]LTWSC-NH2; linker 4-13 via mXylylene) and `CC(C)C[C@@H]1NC(=O)[C@H](Cc2cccc(NC(=O)c3cnco3)c2)NC(=O)[C@H](CC(=O)O)NC(=O)[C@H]2CCCN2C(=O)[C@H](CCC(=O)O)NC(=O)[C@@H](NC(=O)[C@H](Cc2ccc(O)cc2)NC(=O)[C@@H](NC(=O)CN2CCC(NC(=O)CN3CCN(CC(=O)O)CCN(CC(=O)O)CCN(CC(=O)O)CC3)CC2)C(C)C)CSCc2cccc(c2)CSC[C@@H](C(N)=O)NC(=O)[C@H](CO)NC(=O)[C@H](Cc2c[nH]c3ccccc23)NC(=O)[C@H]([C@@H](C)O)NC1=O` [3BP-4239] ({DOTA}-[X2]VYCE[dP]D[X54]LTWSC-NH2; linker 4-13 via mXylylene) fall in the same range of IC50: 0.01 to 0.0794 µM for the first, 0.01 to 0.0794 µM for the second.

Work on `CC(C)C[C@@H]1NC(=O)[C@H](Cc2cccc(NC(=O)c3c[nH]cn3)c2)NC(=O)[C@H](CC(=O)O)NC(=O)[C@H]2CCCN2C(=O)[C@H](CCC(=O)O)NC(=O)[C@@H](NC(=O)[C@H](Cc2ccc(O)cc2)NC(=O)[C@@H](NC(=O)CN2CCC(NC(=O)CN3CCN(CC(=O)O)CCN(CC(=O)O)CCN(CC(=O)O)CC3)CC2)C(C)C)CSCc2cccc(c2)CSC[C@@H](C(N)=O)NC(=O)[C@H](CO)NC(=O)[C@H](Cc2c[nH]c3ccccc23)NC(=O)[C@H]([C@@H](C)O)NC1=O` [3BP-4240] ({DOTA}-[X2]VYCE[dP]D[X62]LTWSC-NH2; linker 4-13 via mXylylene) yielded an IC50 of 0.01 to 0.0794 µM.

Same assay, conditions: FACS binding assay, HT-29 cells, competition with tracer 3BP-4149 (3 nM, Cy5-labeled), 4° C., 1 hour; read-out: pIC50 category (activity) (converted)

`CC(C)C[C@@H]1NC(=O)[C@H](Cc2c[nH]c3ccccc23)NC(=O)[C@H](CC(=O)O)NC(=O)[C@H]2CCCN2C(=O)[C@H](CCC(=O)O)NC(=O)[C@@H]2CSCc3cccc(c3)CSC[C@@H](C(N)=O)NC(=O)[C@H](CNC(=O)C[C@H](NC(=O)COCCOCCNC(=O)CN3CCN(CC(=O)O)CCN(CC(=O)O)CCN(CC(=O)O)CC3)C(=O)N2)NC(=O)[C@H](Cc2c[nH]c3ccccc23)NC(=O)[C@H]([C@@H](C)O)NC1=O` [3BP-4262] ({DOTA-AEEA}-DCE[dP]DWLTW[Dap]C-NH2; lactam 1-10; linker 2-11 via mXylylene) and `COCc1cc(CNC(=O)CC[C@@H]2NC(=O)[C@H]3CCCN3C(=O)[C@H](CCC(=O)O)NC(=O)[C@@H](NC(=O)[C@H](Cc3ccc(O)cc3)NC(=O)[C@@H](NC(=O)CN3CCC(NC(=O)CN4CCN(CC(=O)O)CCN(CC(=O)O)CCN(CC(=O)O)CC4)CC3)C(C)C)CSCc3cccc(c3)CSC[C@@H](C(N)=O)NC(=O)[C@H](CO)NC(=O)[C@H](Cc3c[nH]c4ccccc34)NC(=O)[C@H]([C@@H](C)O)NC(=O)[C@H](CC(C)C)NC(=O)[C@H](Cc3c[nH]c4ccccc34)NC2=O)on1` [3BP-4339] ({DOTA}-[X2]VYCE[dP]E(X45)WLTWSC-NH2; linker 4-13 via mXylylene) fall in the same range of IC50: 0.01 to 0.0794 µM for the first, 0.01 to 0.0794 µM for the second.

First: CC(C)C[C@@H]1NC(=O)[C@H](Cc2c[nH]c3ccccc23)NC(=O)[C@H](CCC(=O)NCc2ccc3cnccc3c2)NC(=O)[C@H]2CCCN2C(=O)[C@H](CCC(=O)O)NC(=O)[C@@H](NC(=O)[C@H](Cc2ccc(O)cc2)NC(=O)[C@@H](NC(=O)CN2CCC(NC(=O)CN3CCN(CC(=O)O)CCN(CC(=O)O)CCN(CC(=O)O)CC3)CC2)C(C)C)CSCc2cccc(c2)CSC[C@@H](C(N)=O)NC(=O)[C@H](CO)NC(=O)[C@H](Cc2c[nH]c3ccccc23)NC(=O)[C@H]([C@@H](C)O)NC1=O [3BP-4328] ({DOTA}-[X2]VYCE[dP]E(X64)WLTWSC-NH2; linker 4-13 via mXylylene)
Second: CC(C)C[C@@H]1NC(=O)[C@H](Cc2c[nH]c3ccccc23)NC(=O)[C@H](CCC(=O)NCc2ccc(S(C)(=O)=O)cc2)NC(=O)[C@H]2CCCN2C(=O)[C@H](CCC(=O)O)NC(=O)[C@@H](NC(=O)[C@H](Cc2ccc(O)cc2)NC(=O)[C@@H](NC(=O)CN2CCC(NC(=O)CN3CCN(CC(=O)O)CCN(CC(=O)O)CCN(CC(=O)O)CC3)CC2)C(C)C)CSCc2cccc(c2)CSC[C@@H](C(N)=O)NC(=O)[C@H](CO)NC(=O)[C@H](Cc2c[nH]c3ccccc23)NC(=O)[C@H]([C@@H](C)O)NC1=O [3BP-4333] ({DOTA}-[X2]VYCE[dP]E(X58)WLTWSC-NH2; linker 4-13 via mXylylene)
The IC50 of the first is higher: 0.1 to 0.794 µM for the first, 0.01 to 0.0794 µM for the second.

From patent US20250339569A1, “CARBONIC ANHYDRASE IX LIGANDS” (priority 2021, published 2025)
